# Measured values from ChEMBL document CHEMBL4342433, “Synthesis and anti-CVB3 activity of 4-amino acid derivative substituted pyrimidine nucleoside analogues” (Bioorg Med Chem Lett, 2020).
# pIC50: −log10 of the molar value.
# Experiments:
# [1] = Therapeutic Index, ratio of TC50 for African green monkey Vero cells to IC50 for CVB3 infected in African green monkey Vero cells; assay type: toxicity
# Coxsackievirus [2] = experiment: Antiviral activity against CVB3 infected in African green monkey Vero cells by MTT assay; assay type: functional, organism-based, B3
# Vero = experiment: (§1) Cytotoxicity in African green monkey Vero cells assessed as reduction in cell viability by MTT assay; assay type: cell-based; settings: chlorocebus sabaeus, vero; read-out: TC50 (the source's name)
# Coxsackievirus [3] = experiment: Antiviral activity against CVB3 infected in African green monkey Vero cells assessed as reduction in degree of lesion incubated for 5 days by microscopic method; assay type: functional, organism-based; settings: B3
# [4] = as §1; assay type: cell-based; settings: chlorocebus sabaeus, Vero cells; read-out: TC50 (the source's name)
SMILES,"pIC50 (Coxsackievirus [2]; Coxsackievirus, B3, Vero)",CC50 [4] [µM],also measured
[K+].[K+].[N-]=[N+]=N[C@]1(CO)O[C@@H](n2ccc(N[C@@H](CCC(=O)[O-])C(=O)[O-])nc2=O)[C@@H](F)[C@@H]1O,,,TI ([1]; vero): 20.8; pIC50 (Coxsackievirus [2]; vero): 3.55; CC50 (Vero): 13.5 µM
COC(=O)[C@H](CCC(=O)O)Nc1ccn([C@@H]2O[C@@](CO)(N=[N+]=[N-])[C@@H](O)[C@@H]2F)c(=O)n1,3.06,9.3,Activity (Coxsackievirus [3]): Dose-dependent effect
[N-]=[N+]=N[C@]1(CO)O[C@@H](n2ccc(N[C@@H](CCC(=O)O)C(=O)O)nc2=O)[C@@H](F)[C@@H]1O,3.31,,CC50 (Vero): 30.7 µM
[N-]=[N+]=N[C@]1(CO)O[C@@H](n2ccc(N[C@@H](CCC(N)=O)C(N)=O)nc2=O)[C@@H](F)[C@@H]1O,< 3.00,160,
CNC(=O)CC[C@H](Nc1ccn([C@@H]2O[C@@](CO)(N=[N+]=[N-])[C@@H](O)[C@@H]2F)c(=O)n1)C(=O)NC,< 3.00,126,
COC(=O)CC[C@H](Nc1ccn([C@@H]2O[C@@](CO)(N=[N+]=[N-])[C@@H](O)[C@@H]2F)c(=O)n1)C(=O)O,3.19,21.5,
NC(=O)c1ncn([C@@H]2O[C@H](CO)[C@@H](O)[C@H]2O)n1 [RIBAVIRIN],3.05,31.2,"selectivity ratio ([1]; Vero cells, read-out: TI): 28.3"
CCNC(=O)CC[C@H](Nc1ccn([C@@H]2O[C@@](CO)(N=[N+]=[N-])[C@@H](O)[C@@H]2F)c(=O)n1)C(=O)NCC,< 3.00,150,
COC(=O)CC[C@H](Nc1ccn([C@@H]2O[C@@](CO)(N=[N+]=[N-])[C@@H](O)[C@@H]2F)c(=O)n1)C(=O)OC,3.00,257,
